The target in assay [1] is T1, FBXL11 (KDM2A) (Homo sapiens, UniProt Q9Y2K7).
T1 sequence (Q9Y2K7 1-1162): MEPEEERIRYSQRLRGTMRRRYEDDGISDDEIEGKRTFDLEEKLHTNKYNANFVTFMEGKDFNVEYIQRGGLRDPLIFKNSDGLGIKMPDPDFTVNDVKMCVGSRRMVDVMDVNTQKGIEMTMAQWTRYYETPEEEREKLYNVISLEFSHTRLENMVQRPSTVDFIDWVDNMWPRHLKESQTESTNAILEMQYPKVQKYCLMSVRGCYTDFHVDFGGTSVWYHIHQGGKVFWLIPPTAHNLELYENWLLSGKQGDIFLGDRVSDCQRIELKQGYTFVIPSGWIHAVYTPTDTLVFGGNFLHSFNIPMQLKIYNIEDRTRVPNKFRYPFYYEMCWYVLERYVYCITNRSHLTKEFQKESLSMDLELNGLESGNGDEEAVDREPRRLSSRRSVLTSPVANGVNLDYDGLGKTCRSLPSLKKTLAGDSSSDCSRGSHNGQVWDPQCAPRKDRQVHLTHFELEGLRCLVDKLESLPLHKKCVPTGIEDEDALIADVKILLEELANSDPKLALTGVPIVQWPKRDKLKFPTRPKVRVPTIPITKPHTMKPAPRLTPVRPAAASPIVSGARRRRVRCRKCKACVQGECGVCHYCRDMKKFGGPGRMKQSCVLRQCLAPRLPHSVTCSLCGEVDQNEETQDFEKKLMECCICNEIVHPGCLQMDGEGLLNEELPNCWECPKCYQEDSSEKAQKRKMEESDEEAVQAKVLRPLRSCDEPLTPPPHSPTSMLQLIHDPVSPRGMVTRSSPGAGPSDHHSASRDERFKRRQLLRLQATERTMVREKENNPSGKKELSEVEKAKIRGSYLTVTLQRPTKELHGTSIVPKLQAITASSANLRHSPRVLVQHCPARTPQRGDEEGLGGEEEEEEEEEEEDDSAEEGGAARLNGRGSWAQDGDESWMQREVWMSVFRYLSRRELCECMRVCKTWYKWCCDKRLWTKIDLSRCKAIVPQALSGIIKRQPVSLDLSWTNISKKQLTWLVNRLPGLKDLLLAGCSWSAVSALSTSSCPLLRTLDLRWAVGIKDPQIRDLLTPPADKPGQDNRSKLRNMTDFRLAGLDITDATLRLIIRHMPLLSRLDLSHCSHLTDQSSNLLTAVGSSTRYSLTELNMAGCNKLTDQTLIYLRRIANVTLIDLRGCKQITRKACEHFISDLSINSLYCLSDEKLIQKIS
Also on record: method as in PMID 26682036. The following applies: cited from earlier work.

The target in another assay is JARID1C (KDM5C) (Homo sapiens, UniProt P41229). Also on record: method as in PMID 26682036. The following applies: cited from earlier work.
JARID1C (KDM5C), sequence (P41229 whole entry): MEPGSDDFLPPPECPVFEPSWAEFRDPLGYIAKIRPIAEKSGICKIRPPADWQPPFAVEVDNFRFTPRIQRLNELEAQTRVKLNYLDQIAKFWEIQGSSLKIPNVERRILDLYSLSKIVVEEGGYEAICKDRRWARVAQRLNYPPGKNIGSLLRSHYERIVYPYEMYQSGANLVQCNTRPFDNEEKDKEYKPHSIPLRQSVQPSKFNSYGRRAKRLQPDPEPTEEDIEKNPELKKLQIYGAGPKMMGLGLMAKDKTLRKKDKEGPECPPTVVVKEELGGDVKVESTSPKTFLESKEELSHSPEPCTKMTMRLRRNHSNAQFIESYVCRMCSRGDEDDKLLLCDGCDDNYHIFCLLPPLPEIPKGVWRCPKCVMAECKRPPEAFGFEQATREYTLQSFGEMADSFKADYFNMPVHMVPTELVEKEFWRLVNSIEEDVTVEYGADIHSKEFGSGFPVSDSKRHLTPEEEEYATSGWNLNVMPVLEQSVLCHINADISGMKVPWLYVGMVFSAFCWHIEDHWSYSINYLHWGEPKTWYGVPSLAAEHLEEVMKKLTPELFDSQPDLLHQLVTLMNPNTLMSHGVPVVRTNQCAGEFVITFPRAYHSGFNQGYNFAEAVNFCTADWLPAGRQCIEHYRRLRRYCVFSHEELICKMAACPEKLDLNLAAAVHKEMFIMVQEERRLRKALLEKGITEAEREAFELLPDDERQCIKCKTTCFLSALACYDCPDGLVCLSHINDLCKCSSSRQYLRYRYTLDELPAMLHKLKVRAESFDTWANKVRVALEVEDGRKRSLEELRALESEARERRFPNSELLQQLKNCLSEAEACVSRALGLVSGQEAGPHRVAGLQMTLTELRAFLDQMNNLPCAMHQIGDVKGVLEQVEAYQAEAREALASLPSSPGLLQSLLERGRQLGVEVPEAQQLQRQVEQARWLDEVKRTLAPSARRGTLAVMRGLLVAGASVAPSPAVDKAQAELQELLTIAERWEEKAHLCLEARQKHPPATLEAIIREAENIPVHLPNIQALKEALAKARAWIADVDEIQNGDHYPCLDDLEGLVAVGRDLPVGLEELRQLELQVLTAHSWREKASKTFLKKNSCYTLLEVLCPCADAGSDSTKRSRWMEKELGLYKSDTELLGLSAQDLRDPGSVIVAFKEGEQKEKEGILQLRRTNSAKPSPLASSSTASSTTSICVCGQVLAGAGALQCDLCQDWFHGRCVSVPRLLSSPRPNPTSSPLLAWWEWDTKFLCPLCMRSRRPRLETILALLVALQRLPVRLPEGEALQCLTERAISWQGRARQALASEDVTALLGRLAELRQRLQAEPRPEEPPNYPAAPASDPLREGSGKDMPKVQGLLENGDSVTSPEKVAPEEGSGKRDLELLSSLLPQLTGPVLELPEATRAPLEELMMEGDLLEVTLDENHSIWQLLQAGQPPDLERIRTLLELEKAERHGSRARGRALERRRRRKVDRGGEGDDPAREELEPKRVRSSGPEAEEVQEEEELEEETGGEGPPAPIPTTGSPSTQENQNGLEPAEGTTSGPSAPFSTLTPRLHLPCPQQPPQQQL
Another assay deals with T2, JMJD2E (KDM4E) (Homo sapiens, UniProt B2RXH2).
T2 sequence (B2RXH2 1-506): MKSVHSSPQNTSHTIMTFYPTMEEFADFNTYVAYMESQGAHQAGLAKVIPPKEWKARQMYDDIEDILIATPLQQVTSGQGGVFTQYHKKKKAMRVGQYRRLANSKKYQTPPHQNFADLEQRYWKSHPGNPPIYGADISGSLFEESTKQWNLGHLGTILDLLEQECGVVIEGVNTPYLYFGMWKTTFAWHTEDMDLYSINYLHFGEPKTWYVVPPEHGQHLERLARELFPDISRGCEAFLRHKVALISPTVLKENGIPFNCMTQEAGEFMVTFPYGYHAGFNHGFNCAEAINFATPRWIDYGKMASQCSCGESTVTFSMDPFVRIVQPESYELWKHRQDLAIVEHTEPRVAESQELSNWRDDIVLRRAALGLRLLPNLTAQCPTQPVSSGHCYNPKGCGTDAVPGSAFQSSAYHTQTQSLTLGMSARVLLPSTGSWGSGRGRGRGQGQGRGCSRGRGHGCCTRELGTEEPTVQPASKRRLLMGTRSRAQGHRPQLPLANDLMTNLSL
Put plainly: KDM AlphaScreen assay, JMJD2E. A general note: Alpha assays give light when donor and acceptor beads are brought close together.

Assay [2] concerns the target T1, FBXL11 (KDM2A). Put plainly: KDM AlphaScreen assay, FBXL11.
Experimental: (§1) Inhibition assays for PHD2 (AlphaScreen) [9], the KDMs (AlphaScreen) [17], BBOX [18] and FTO [19] were carried out as previously described. […] IC50 values were calculated using nonlinear regression with normalized dose-response fit using GraphPad Prism 5.

Counter-ions that a name gives are not always drawn. Like-named read-outs stand apart in the source and are kept apart here.

Among the data in publication PMC4492579, “Potent and Selective Triazole-Based Inhibitors of the Hypoxia-Inducible Factor Prolyl-Hydroxylases with Activity in the Murine Brain” (PLoS ONE, 2015) are IC50 values, retold here.

Experimental for JMJD2E (KDM4E): as §1

In the case of `O=C(O)CNC(=O)c1c(O)c2ccccc2n(Cc2ccccc2)c1=O` [IOX2], the 50% inhibitory concentration (IC50) on FBXL11 (KDM2A) [1] is 52 µM; at JARID1C (KDM5C), 159 µM.
`CC(C)(C)OC(=O)c1ccc(-n2[nH]cc(-n3ccnn3)c2=O)nc1` [IOX4, t-Butyl 6-(5-oxo-4-(1H-1,2,3-triazol-1-yl)-2,5-dihydro-1H-pyrazol-1-yl)nicotinate]: the figures for the half-maximal inhibitory concentration (IC50) on JMJD2E (KDM4E) and against FBXL11 (KDM2A) [2] were greater than 20 µM and 20 µM, respectively.
With `O=C(O)c1ccc(-n2[nH]cc(-n3ccnn3)c2=O)nc1` [compound 1, 6-(5-oxo-4-(1H-1,2,3-triazol-1-yl)-2,5-dihydro-1H-pyrazol-1-yl)pyridine-3-carbocylic acid hydrochloride], the IC50 on JMJD2E (KDM4E) was greater than 20 µM; against FBXL11 (KDM2A) [2] it was 20 µM.

The IC50 is the concentration needed to halve the response being measured.
